Like-named read-outs stand apart in the source and are kept apart here. Blank lines part the entries; values can stand above or below the compound they belong to.
Tests used:
primary cortical neurons = test: cells; format: cell-based, mouse; details: for Protection against hemin-induced toxicity (in words): MTT
Experimental: Primary cortical neuronal cultures: Primary cortical neurons were collected from embryonic (E15) CD1 mice. The cortices of the mice were dissected, homogenized, and plated in minimum essential medium containing 10% fetal bovine serum (FBS), 5% horse serum, and 1% penicillin/streptomycin in 96-well plates, 6-well plates, or 10-cm dishes. The neurons were maintained at 37° C. with 5% CO2. All experiments were conducted 24 hours after plating.
In vitro ICH model: Ferroptosis is a type of programmed cell death that is dependent on iron, and is characterized by the accumulation of lipid peroxides. Ferroptosis is genetically and biochemically distinct from other forms of regulated cell death such as apoptosis. Ferroptosis is initiated by the failure of the glutathione-dependent antioxidant defenses, resulting in unchecked lipid peroxidation and eventual cell death.
Cell death was induced in primary cortical neurons by treating the neurons with hemin, a blood breakdown product. For the neuroprotection studies, cells were treated with hemin (100 μM) in the presence of NAC (0.1 mM to 1mM), 6-hydroxy-2,5,7,8-tetramethylchroman-2-carboxylic acid (trolox; 0.1 μM to 100 μM), β-carotene (0.1 μM to 100 μM) α-lipoic acid (0.01 mM to 2 mM), glutathione ethyl ester (1 mM to 10 mM), oxothiazolidine-4-carboxylate (1 mM to 10 mM), cystamine (0.1 μM to 10 μM), or nordihydroguaiaretic acid (0.1 μM to 10 μM). Cell viability was analyzed 24 h after treatment. The cells were rinsed with warm phosphate-buffered saline (PBS) and assessed using an MTT assay. The fidelity of the MTT assays in measuring viability was verified by calcein-AM/ethidium homodimer-1 staining (Live/Dead assay).
The ability of NAC to protect cells was investigated in a hemin model of hemorrhagic stroke. The in vitro model of ICH involved the administration of hemin, a breakdown product of hemoglobin from lysed blood, to trigger cell death. Treatment of primary cortical neurons with 100 μM hemin induced widespread cell death through a ferroptotic mechanism, which was quantified with MTT and qualitatively observed using live/dead staining. Living cells were labeled with calcein-AM, and dead cells were labeled with ethidium homodimer. […] Scale bars: 100 μm.
A systematic pharmacological screening of oxidized lipid species inhibitors in the context of hemin-induced cell death was performed in primary cortical neurons. Primary cortical neurons were co-treated with hemin and a non-specific or enzymatic lipid peroxidation inhibitor. The MTT assays were performed 18 h following the co-treatment.

[1] = system: collagenase-induced mouse model of ICH; test: In vivo collagenase-induced mouse model of ICH (Fluoro-Jade staining, corner task, adhesive tape removal task, hematoma size)
Experimental: In vivo collagenase-induced mouse model of ICH: Male C57BL/6 mice (8 to 10 weeks of age) or mice (10 to 12 weeks of age) were anesthetized with isoflurane (2% to 5%) and placed on a stereotaxic frame. During the procedure, the animal's body temperature was maintained at 37° C. with a homeothermic blanket. 1 mL of collagenase (0.075 IU) was infused into the right striatum at a flow rate of 0.120 μL/min using a Nanomite® syringe pump and a syringe. Relative to the bregma point, the stereotaxic coordinates of the injection were: lateral, −0.20; anteroposterior, 0.62; and dorsoventral, −0.40. In control animals, 1 mL of saline was infused. The treatment group received NAC (75 mg/kg or 300 mg/kg in normal saline, I.P.) once a day for 7 days starting at 2 h after collagenase infusion. For combinatorial studies, NAC (40 mg/kg, I.P.) and PGE 2 (10 μM, ICV) were administered to the mice 2 h after the collagenase injection, and then NAC (40 mg/kg) was administered once daily for 7 days. The control groups received the vehicle (normal saline) alone. The animals were randomized to sham or ICH groups. The identities of the mice that received vehicle or NAC were masked to surgeons who performed the experiments. […] Proper postoperative care was provided until the animals recovered completely.
Behavioral analysis: The corner task assessed integrated sensorimotor function in the stimulation of vibrissae (sensory neglect) and rearing (motor response). Mice were placed between two cardboard pieces that formed a corner with a 30° angle. While maintaining the 30° angle, the boards were gradually moved toward the mouse until the mouse approached the corner, reared upward, and turned 180° to face the open end. The direction (left or right) in which the mouse turned was recorded for each trial. Ten trials were performed for each mouse.
For the sensory neglect task (adhesive tape removal task), adhesive tape was placed on the planter region of the forward paw (right and left) of each mouse. The time from which the tape was applied to when the mouse successfully removed the tape was recorded for each paw. A maximum of 300 s for each paw was allowed.
Fluoro-Jade® B staining: Neurodegeneration of cells was assessed in mice with collagenase-induced ICH using Fluoro-Jade® B staining. 40 μM brain sections were mounted on gelatin-coated slides and dried at room temperature overnight. The sections were immersed in a graded series of alcohol solutions before being immersed in a 0.06% potassium permanganate (KMnO4) solution for 15 min. Sections were washed with water before being immersed in a 0.001% Fluoro-Jade® staining solution with gentle shaking in the dark for 30 min. The sections were then washed with water and dried overnight at room temperature in the dark before being dehydrated and coverslipped with DPX. Fluoro-Jade® B staining was examined within perihematoma or hematoma regions using a fluorescence microscope. Quantification of Fluoro-Jade® B staining was performed using three brain sections (anterior to posterior of hematoma) using Metamorph analysis.
The vehicle or NAC was then administered daily up to 7 days following the ictus. Neuronal loss was determined using a non-specific marker of neurodegeneration, Fluoro-Jade® staining. […] Mouse behavior was assessed using a corner task (spatial neglect) and an adhesive tape removal task (sensory neglect). Mouse behavior was assessed on day 1, 3, and 7 after the induction of ICH.

recombinant ALOX5 = target: T1, recombinant ALOX5 (Homo sapiens, UniProt P09917); test: Lipoxygenase UV/Vis-based IC50 assay with recombinant ALOX5; format: biochemical; details: test tube assay
T1 sequence (P09917 1-674): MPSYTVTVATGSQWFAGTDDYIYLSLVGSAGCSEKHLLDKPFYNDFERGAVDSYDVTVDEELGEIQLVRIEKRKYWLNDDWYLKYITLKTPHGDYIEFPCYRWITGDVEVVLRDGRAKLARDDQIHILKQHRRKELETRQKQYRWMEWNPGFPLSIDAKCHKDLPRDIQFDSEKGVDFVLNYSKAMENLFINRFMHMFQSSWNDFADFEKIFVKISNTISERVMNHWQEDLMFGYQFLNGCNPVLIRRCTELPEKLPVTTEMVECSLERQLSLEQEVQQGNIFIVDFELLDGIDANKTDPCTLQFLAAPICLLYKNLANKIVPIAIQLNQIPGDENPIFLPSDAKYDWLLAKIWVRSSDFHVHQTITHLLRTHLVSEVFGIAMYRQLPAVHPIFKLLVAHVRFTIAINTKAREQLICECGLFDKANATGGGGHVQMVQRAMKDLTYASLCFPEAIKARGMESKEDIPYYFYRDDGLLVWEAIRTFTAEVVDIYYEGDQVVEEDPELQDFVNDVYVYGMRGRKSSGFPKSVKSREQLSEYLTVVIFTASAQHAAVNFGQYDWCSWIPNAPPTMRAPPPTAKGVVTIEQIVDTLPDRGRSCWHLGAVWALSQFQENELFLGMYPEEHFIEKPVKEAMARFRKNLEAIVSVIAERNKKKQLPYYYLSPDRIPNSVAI
Experimental: Lipoxygenase UV/Vis-based IC50 assay: Inhibition potencies were determined by following the formation of conjugated diene products, 5-HpETE [ε=27000 M^−1 cm^−1 for AA turnover) at 234 nm using a UV/Vis spectrophotometer. All reaction mixtures were 2 mL in volume, and the reaction mixtures were constantly stirred using a magnetic stir bar at room temperature (23° C.). All reactions were carried out in a buffer containing 200 μM ATP and 10 μM AA. The AA concentration of a sample was verified by full turnover with soybean-1 lipoxygenase and quantifying the product concentration. Inhibitors were stored in DMSO at −20° C. Enzymatic reactions were initiated by adding approximately 100 nM-300 nM ammonium sulfate-precipitated wildtype enzyme. IC50 values were obtained by determining the enzymatic rate at a minimum of five inhibitor concentrations, plotting the enzymatic rate against inhibitor concentration, and performing a hyperbolic saturation curve fit. Inhibitor concentrations were assayed in duplicate or triplicate.
Significance was determined by two-way ANOVA and Bonferroni's post hoc test.

lipid protein adducts = test: Hemin-induced lipid protein adduct formation (Bt-AA, streptavidin-HRP Western blot) in primary neurons; format: cell-based, mouse; details: for AA-protein adduct formation: non-protective doses: NAC 0.1 mM, vitamin E 1 μM, zileuton 1 μM; for Lipid protein adduct formation: protective doses: NAC 1 mM, vitamin E 10 μM, zileuton 10 μM
Experimental: Electrophilic attack by ALOX5 products could alter cellular protein-mediated signaling to trigger cell death. Arachidonic acid (AA) tagged with biotin (Bt-AA) was used to monitor the formation of covalent protein adducts. To test whether hemin was sufficient to catalyze the formation of protein-reactive lipid species, primary neurons were treated with hemin at concentrations of 5 μM-50 μM for 4 h. Lipid protein adducts were detected by Western blots probed with Streptavidin-HRP. Bt-AA incorporation into protein increased with increasing concentrations of hemin, and significant lipid protein adducts were detected at 50 μM hemin. […] The blot is representative from replicates of three experiments. The arrow indicates the decrease in lipid protein adduct formation.

[2] = primary cortical neurons, 100 μM hemin
[3] = Mus musculus, Primary cortical neuron, protection from 100 μM hemin, MTT (Table 2), read-out: EC50
[4] = protection from 100 μM hemin, MTT (Table 2), read-out: EC50
[5] = NAC 40 mg/kg i.p. and/or PGE2 10 μM ICV, days 1, 3, 7

Compound: CC(=O)Oc1ccccc1C(=O)O [Aspirin]
Protection against hemin-induced toxicity (in words) (primary cortical neurons; [2]): failed to protect against hemin toxicity

Compound: CCCCS(=N)(=O)CCC(N)C(=O)O (centres unmarked) [BSO, buthionine sulfoximine]
Effect on NAC-induced protection from hemin (primary cortical neurons; co-treatment with NAC and BSO): reversed NAC-induced protection

Compound: CC(=O)N(O)C/C=C/c1cccc(Oc2ccccc2)c1 [BW A4C]
EC50 (primary cortical neurons; 100 μM hemin, primary cortical neurons, read-out: EC50 for reduction of hemin-induced toxicity/ferroptosis): 5 µM

Compound: CC(C=Cc1cccc(Oc2ccc(F)cc2)c1)N(O)C(N)=O (centres unmarked) [BW B70]
Protection against hemin-induced toxicity (in words) (primary cortical neurons; [2]): significantly reduced hemin-induced toxicity

Compound: NCCSSCCN [Cystamine]
EC50 (primary cortical neurons; [3]): 7.5 µM
Protection against hemin-induced toxicity (in words) (primary cortical neurons; [2]): prevented hemin-induced death as effectively as NAC

Compound: CCOC(=O)CNC(=O)[C@H](CS)NC(=O)CC[C@H](N)C(=O)O [Glutathione ethyl ester]
Protection against hemin-induced toxicity (in words) (primary cortical neurons; [2]): prevented hemin-induced death as effectively as NAC
EC50 (primary cortical neurons; [4]): 2500 µM

Compound: COc1ccc2c(c1)c(CC(=O)O)c(C)n2C(=O)c1ccc(Cl)cc1 [Indomethacin]
Protection against hemin-induced toxicity (in words) (primary cortical neurons; [2]): failed to protect against hemin toxicity

Compound: C#CCOc1ccccc1CCCCCC(=O)NS(C)(=O)=O [MS-PPOH]
Protection against hemin-induced toxicity (in words) (primary cortical neurons; [2]): failed to protect against hemin toxicity

Compound: CCC(=O)NC(c1cccs1)c1cc([N+](=O)[O-])c2cccnc2c1O (centres unmarked) [NCTT-956]
Protection against hemin-induced toxicity (in words) (primary cortical neurons; [2]): failed to protect against hemin toxicity

Compound: CC(Cc1ccc(O)c(O)c1)C(C)Cc1ccc(O)c(O)c1 (centres unmarked) [Nordihydroguaiaretic acid]
EC50 (primary cortical neurons; [3]): 5 µM
Protection against hemin-induced toxicity (in words) (primary cortical neurons; [2]): prevented hemin-induced death as effectively as NAC

Compound: O=C1NC(C(=O)O)CS1 (centres unmarked) [Oxothiazolidine-4-carboxylate]
Protection against hemin-induced toxicity (in words) (primary cortical neurons; [2]): prevented hemin-induced death as effectively as NAC
EC50 (primary cortical neurons; [4]): 2500 µM

Compound: c1ccc2c(c1)SCc1c-2[nH]c2ccccc12 [PD146176]
Protection against hemin-induced toxicity (in words) (primary cortical neurons; [2]): failed to protect against hemin toxicity

Compound: CCCCC[C@H](O)/C=C/[C@H]1[C@H](O)CC(=O)[C@@H]1C/C=C\CCCC(=O)O [PGE2, prostaglandin E2]
Sensory neglect (adhesive tape removal task) behavioral deficits [1, 5]: no effect
Spatial neglect (corner task) behavioral deficits [1, 5]: no effect

Inhibition of ALOX5 activity (recombinant ALOX5): effective in inhibiting ALOX5
Compound: CC(c1cc2ccccc2s1)N(O)C(N)=O (centres unmarked) [Zileuton]
EC50 (primary cortical neurons; Mus musculus, Primary cortical neuron, 100 μM hemin, primary cortical neurons, read-out: EC50 for reduction of hemin-induced toxicity/ferroptosis): 7 µM
AA-protein adduct formation (lipid protein adducts): did not decrease AA-protein adduct formation
Lipid protein adduct formation (lipid protein adducts): decreased lipid protein adduct formation

Compound: CCCCC(C)(C)[C@H](O)/C=C/[C@H]1[C@H](O)CC(=O)[C@@H]1C/C=C\CCCC(=O)O [dmPGE2, 16,16-dimethyl PGE2]
Protection against hemin-induced toxicity (in words) (primary cortical neurons; [2]): dose-dependently abrogated hemin-induced toxicity
Neuronal degeneration in perihematomal regions (Fluoro-Jade staining) ([1]; NAC 40 mg/kg i.p. daily 7 days and/or dmPGE2 10 μM ICV 2 h post-injury): no significant effect

Compound: Cc1c(C)c2c(c(C)c1O)CCC(C)(C(=O)O)O2 (centres unmarked) [trolox, 6-hydroxy-2,5,7,8-tetramethylchroman-2-carboxylic acid]
Protection against hemin-induced toxicity (in words) (primary cortical neurons; [2]): abrogated hemin-induced toxicity in a dose-dependent manner

Compound: Cc1c(C)c2c(c(C)c1O)CC[C@@](C)(CCC[C@H](C)CCC[C@H](C)CCCC(C)C)O2 [vitamin E, α-tocopherol]
AA-protein adduct formation (lipid protein adducts): did not decrease AA-protein adduct formation
Lipid protein adduct formation (lipid protein adducts): decreased lipid protein adduct formation

Compound: O=C(O)CCCCC1CCSS1 (stereo not drawn) [α-Lipoic acid, α-lipoic acid]
Protection against hemin-induced toxicity (in words) (primary cortical neurons; [2]): failed to prevent hemin toxicity at any dose examined

Inhibition of ALOX5 activity (recombinant ALOX5): did not inhibit ALOX5 activity
Compound: CC1=C(/C=C/C(C)=C/C=C/C(C)=C/C=C/C=C(C)/C=C/C=C(C)/C=C/C2=C(C)CCCC2(C)C)C(C)(C)CCC1 [β-carotene]
Protection against hemin-induced toxicity (in words) (primary cortical neurons; [2]): protected against hemin-induced toxicity

Compound: Hemin
% Viability (primary cortical neurons): 50.14%
EC50 (primary cortical neurons; hemin itself (toxic stimulus), Table 2 EC50 column, read-out: EC50): 100 µM
